Earlier results in patent US8868172B2, “Methods and systems for recommending an appropriate action to a patient for managing epilepsy and other neurological disorders” (Cyberonics, Inc., priority 2005, dated 2014).
Where two headings read alike, the source gives them in different places.

Experiments:
[1] = not given; remark: listed apart in the source
[2] = for plasma concentration average per daily dose of 1 mg/kg: long term therapy
[3] = test system: cultured mouse spinal cord neurons; conditions: 10-30 μg/mL
T-type Ca^2+ currents = conditions: in vitro
rat hippocampal slices = conditions: 10-30 μg/mL
[4] = test system: GABA/benzodiazepine receptor ionophore complex; conditions: allosteric, no changes in chloride flux
sodium channels = conditions: in vitro
[5] = test system: dopaminergic and serotonergic neurotransmission; conditions: in vivo microdialysis
[6] = per daily dose of 1 mg/kg of the drug itself

In the case of `O=C1NC(=O)C(c2ccccc2)(c2ccccc2)N1` [Phenyloin, diphenylhydantoin], the “concentrations at which chronic control of seizures is generally obtained” value is given as “above 10 μg/ml” and the “concentrations at which toxic effects such as nystagmus develop” value [1] is given as “around 20 μg/ml”.

For `CCC1(c2ccccc2)C(=O)NC(=O)NC1=O` [phenobarbital], the “plasma concentration of phenobarbital per daily dose of 1 mg/kg of primidone” value ([2]; long term therapy with primidone) is listed as “about 2 μg/ml” and the “plasma concentration average per daily dose of 1 mg/kg” value ([2]; adults, per daily dose of 1 mg/kg) is listed as “about 10 μg/ml”.

In the case of `CCC1(c2ccccc2)C(=O)NCNC1=O` [primidone, Primidone], the “plasma concentration average per daily dose of 1 mg/kg” value [2, 6] is given as “about 1 μg/ml”.

For `CCC1(C)CC(=O)NC1=O` (centres unmarked) [ethosuximide, Ethosuximide], the “plasma concentration average per daily dose of 1 mg/kg” value [2, 6] is listed as “about 2 μg/ml”.

For `NS(=O)(=O)Cc1noc2ccccc12` [zonisamide, 1,2-benzisoxazole-3-methanesulfonamide], the “effect on postsynaptic GABA or glutamate responses” value [3] is listed as “without affecting”, the “effect on synaptically-driven electrical activity” value [3] is listed as “suppresses” and the “effect on voltage-dependent, transient inward currents (T-type Ca2+ currents)” value (T-type Ca^2+ currents) is listed as “reduces”. The “effect on neuronal or glial uptake of [3H]-GABA” value (rat hippocampal slices) was “without affecting”, the “carbonic anhydrase inhibiting activity” value (carbonic anhydrase) was “weak” and the “binding to the GABA/benzodiazepine receptor ionophore complex” value [4] was “binds”. For the same molecule, the “effect on sodium channels” value (sodium channels) was “blocks” and the “effect on dopaminergic and serotonergic neurotransmission” value [5] was “facilitates”.
